Common to all, as to test: DTP human tumour cell line panel, 48 h
For experiment [1], the system named is 786-0 renal.
The test system of experiment [2] is A498 renal.
The subject of experiment [3] is A549 NSCLC.
The test system of experiment [4] is KM12 colon.
The subject of experiment [5] is MOLT-4 leukemia.
Experiment [6] has as its system NCI-H23 lung.
For experiment [7], the system named is OVCAR-8 ovarian.
For experiment [8], the system named is SK-MEL-2 melanoma.
Experiment [9] deals with SW-620 colon.

SMILES strings stand for the structures.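 Test compounds were applied to cells in 96-well plates for 48 hours at 5 doses. Here, GI50 denotes the concentration required for 50% inhibition of growth. Definition used: TGI = concentration required for complete inhibition of growth.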 Some results are limits rather than exact numbers.

In the case of `COc1ccccc1OCC(O)CO` (stereo not drawn), the GI50 in [1], in [2], in experiment [3], in experiment [4], in experiment [5] and in [6] was over 100 µM throughout. For the same compound, the GI50 in experiment [7], in experiment [8] and in experiment [9] was over 100 µM in each case. Also, the TGI in experiment [1], in experiment [2], in [3], in [4], in experiment [5] and in [6] was over 100 µM in each case. The TGI in experiment [7], in experiment [8] and in experiment [9] was over 100 µM throughout.
For `CCNC1=CC(=O)c2ncccc2C1=O`, the GI50 was 9.09 µM in experiment [1]; 1.24 µM in experiment [2]; 1.2 µM in experiment [3]; 3.25 µM in [4]; 2.94 µM in [5]; 0.504 µM in experiment [6]. The GI50 in experiment [7] is 3.04 µM; in experiment [8] it was 2.36 µM; in [9] it was 1.75 µM. Besides, the TGI came to 23.4 µM in experiment [1]; 2.87 µM in experiment [2]; 3.38 µM in experiment [3]; 15.1 µM in experiment [4]; 14.3 µM in experiment [5]; 2.53 µM in experiment [6]. In addition, the figures for the TGI in experiment [7], in [8] and in [9] were 14.2 µM, 7.53 µM and 4.3 µM, respectively.
Consider `CC(Cl)CC(=O)Nc1ccc2c(c1)oc(=O)c1cc(NC(=O)CC(C)Cl)ccc12` (stereo not drawn), for which the GI50 in experiment [1] is 16.9 µM; in experiment [2], 16.1 µM; in experiment [3], 8 µM; in [4], 7.44 µM; in experiment [5], 10.2 µM; in [6], 50 µM. Further, the results for the GI50 in [7], in experiment [8] and in [9] were 10.4 µM, 2.99 µM and 33.3 µM, respectively. The TGI is 44.1 µM in [1]; 38 µM in [2]; 22.2 µM in experiment [3]; 24.4 µM in experiment [4]; 34.4 µM in experiment [5]; over 100 µM in experiment [6]. In addition, the results for the TGI in [7], in experiment [8] and in experiment [9] were 28.8 µM, 83.6 µM and over 100 µM, respectively.
Take `O=c1c2c(=NCCCN3CCCC3)cc3c(=O)n(CCCN4CCCC4)c(=O)c4c(NCCCN5CCCC5)cc(c(O)n1CCCN1CCCC1)c2c4-3`: the GI50 in experiment [1] was 12.9 µM; in [2] it was 2.13 µM; in experiment [3], 1.45 µM; in experiment [4], 3.27 µM; in [5], 6.63 µM; in experiment [6] it was 5.43 µM. Besides, the GI50 was 1.74 µM in experiment [7], 2.22 µM in experiment [8] and 1.72 µM in experiment [9]. In addition, the concentration for total growth inhibition (TGI) is over 100 µM in [1]; 4.98 µM in experiment [2]; 3.84 µM in experiment [3]; 12.7 µM in experiment [4]; over 100 µM in experiment [5]; 24.1 µM in [6]. The TGI in [7] was determined as 12.3 µM; in experiment [8], 6.57 µM; in experiment [9] it was 14.5 µM.
For the compound `CCn1cc(C2NC(=O)c3cc(F)ccc3N2)c2cccc(Cl)c21` (stereo not drawn), the GI50 in [1] was 0.618 µM; in experiment [2] it was 0.0879 µM; in experiment [3], 0.364 µM; in experiment [4] it was 0.277 µM; in experiment [5] it was 0.293 µM; in experiment [6] it was 0.508 µM. Also, the GI50 was 0.408 µM in experiment [7], 0.887 µM in experiment [8] and 0.193 µM in experiment [9]. The TGI in experiment [1] was over 50.6 µM; in experiment [2], 0.402 µM; in experiment [3], over 100 µM; in experiment [4], over 100 µM; in experiment [5] it was over 47.8 µM; in experiment [6], over 100 µM. In addition, the TGI in experiment [7], in [8] and in [9] was over 100 µM throughout.
On to `C=C1C(=O)O[C@H]2[C@H](OC(C)=O)[C@@H](C)CCC/C(C)=C/CC[C@]3(CO3)[C@H](O)C[C@@H]12`, for which the GI50 is 3.65 µM in experiment [1]; 16.9 µM in experiment [2]; 16.9 µM in [3]; 2.33 µM in experiment [4]; 2.28 µM in experiment [5]; 4.87 µM in experiment [6]. Further, the GI50 was 3.06 µM in [7], 14.8 µM in experiment [8] and 3.24 µM in experiment [9]. Further, the TGI in experiment [1] came to 14.1 µM; in experiment [2] it was 33.4 µM; in [3], 35 µM; in [4], 8.96 µM; in [5] it was 5.82 µM; in experiment [6], 18.3 µM. In addition, the values for the TGI in experiment [7], in experiment [8] and in [9] were 10.8 µM, 31.9 µM and 10.7 µM, respectively.
`Cn1cc(/C=C2\C(=O)Nc3cccnc32)c2ccccc21`: the GI50 in experiment [1] was over 25 µM; in [2], 4.73 µM; in experiment [3], 11.8 µM; in experiment [4], 0.885 µM; in [5], 11.5 µM; in experiment [6], 10.9 µM. In addition, the GI50 in experiment [7] is 16.9 µM; in experiment [8] it was 11.6 µM; in experiment [9] it was 12.6 µM. In addition, the TGI in experiment [1], in experiment [2], in experiment [3], in experiment [4], in [5] and in experiment [6] was over 25 µM in each case. Also, the TGI in [7], in experiment [8] and in [9] was over 25 µM in each case.
For `Cc1cc(I)cc(CN(C)CCCCN2CCCC2)c1O`, the GI50 in [1] was 15.3 µM; in experiment [2] it was 13.4 µM; in [3], 30.7 µM; in [4], 19.8 µM; in experiment [5], 15.5 µM; in [6] it was 34.7 µM. Further, the GI50 is 37.2 µM in [7], 18.2 µM in [8] and 17.2 µM in experiment [9]. Moreover, the TGI was 31.4 µM in experiment [1]; 30.2 µM in [2]; over 100 µM in experiment [3]; 53.9 µM in [4]; 33.4 µM in [5]; over 100 µM in experiment [6]. In addition, the TGI is over 100 µM in experiment [7], 34.8 µM in [8] and 39.6 µM in experiment [9].
Turning to `C1CCN2CC34CC(CC5CCCN(C6CCCC3N6)C54)C2C1` (stereo not drawn), the TGI in experiment [1], in experiment [2], in [3], in experiment [4], in experiment [5] and in experiment [6] was over 100 µM each time. The TGI in experiment [7], in experiment [8] and in [9] was over 100 µM in each case.

The term GI50 denotes the concentration at which growth is held to half of that of the control. The term TGI denotes the concentration at which net growth stops. The low end stands for more potent growth arrest, the high end for less potent growth arrest.

(Values after PubChem BioAssay (NCI).)
